The values that follow come from patent US8143290B2, “Chemical compounds 572” (AstraZeneca AB, priority 2006, dated 2012).

This experiment concerns the target T1, recombinant human GR (Homo sapiens, UniProt P04150).
T1 construct: purchased Panvera/Invitrogen P2812 (kit P2893)
T1 sequence (P04150 1-777): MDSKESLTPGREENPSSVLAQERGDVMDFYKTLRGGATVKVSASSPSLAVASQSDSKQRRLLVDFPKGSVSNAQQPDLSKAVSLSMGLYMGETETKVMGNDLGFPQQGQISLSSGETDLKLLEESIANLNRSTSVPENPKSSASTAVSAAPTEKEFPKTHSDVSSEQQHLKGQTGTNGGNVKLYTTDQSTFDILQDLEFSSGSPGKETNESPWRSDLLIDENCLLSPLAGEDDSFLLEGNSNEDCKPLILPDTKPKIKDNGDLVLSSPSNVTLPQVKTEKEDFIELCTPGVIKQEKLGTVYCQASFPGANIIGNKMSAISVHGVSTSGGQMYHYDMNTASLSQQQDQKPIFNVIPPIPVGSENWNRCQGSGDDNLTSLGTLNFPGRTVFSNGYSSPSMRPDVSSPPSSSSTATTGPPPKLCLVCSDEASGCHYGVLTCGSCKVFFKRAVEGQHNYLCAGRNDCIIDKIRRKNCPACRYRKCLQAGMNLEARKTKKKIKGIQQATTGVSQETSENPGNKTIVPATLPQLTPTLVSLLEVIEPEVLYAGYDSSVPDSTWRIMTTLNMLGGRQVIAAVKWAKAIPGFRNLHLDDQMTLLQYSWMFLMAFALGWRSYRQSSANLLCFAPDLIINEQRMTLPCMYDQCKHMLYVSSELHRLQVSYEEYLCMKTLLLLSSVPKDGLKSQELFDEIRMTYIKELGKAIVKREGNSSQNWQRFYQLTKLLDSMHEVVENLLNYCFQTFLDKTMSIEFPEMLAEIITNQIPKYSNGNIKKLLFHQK
The experiment can be described thus: Human Glucocorticoid Receptor (GR) Assay, fluorescence polarization. The format is binding. Conditions: GS Red tracer, incubated 2 h at r.t., XLfit model 205, read-out: GRhuFL_FP_v2 Mean IC50. The essentials: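 Fluorescence polarization kit assay: recombinant GR and GS Red fluorescent ligand with Stabilizing Peptide and DTT in potassium phosphate/sodium molybdate/EDTA screening buffer. Plates incubated 2 h in the dark at r.t.; DMSO served as 0% and dexamethasone as 100% control.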
A general note: In fluorescence polarisation assays a small probe gives low polarisation when free and higher when bound to something large.

`C[C@H](NC(=O)C(C)(F)F)[C@H](Oc1ccc2c(cnn2-c2ccc(F)cc2)c1)c1ccc(F)c(F)c1` [Example 228, N-[(1R,2S)-1-(3,4-difluorophenyl)-1-[1-(4-fluorophenyl)indazol-5-yl]oxy-propan-2-yl]-2,2-difluoro-propanamide]: the IC50 came to 8 nM. Consider `C[C@H](NC(=O)C(C)(C)C)[C@H](Oc1ccc2c(cnn2-c2ccc(F)cc2)c1)c1ccc(Cl)cc1` [Example 183, N-[(1R,2S)-1-(4-chlorophenyl)-1-[1-(4-fluorophenyl)indazol-5-yl]oxy-propan-2-yl]-2,2-dimethyl-propanamide], for which the IC50 came to 4.6 nM.

On to `COc1c(C)cc([C@@H](Oc2ccc3c(cnn3-c3ccc(F)cc3)c2)[C@H](C)NC(=O)C(F)(F)F)cc1C` [Example 159, 2,2,2-trifluoro-N-[(1R,2S)-1-[1-(4-fluorophenyl)indazol-5-yl]oxy-1-(4-methoxy-3,5-dimethyl-phenyl)propan-2-yl]acetamide], for which the IC50 stood at 4.2 nM. On to `C[C@H](NC(=O)C(C)(C)C)[C@H](Oc1ccc2c(cnn2-c2ccc(F)cc2)c1)c1cc(F)cc(Cl)c1` [Example 184, N-[(1R,2S)-1-(3-chloro-5-fluoro-phenyl)-1-[1-(4-fluorophenyl)indazol-5-yl]oxy-propan-2-yl]-2,2-dimethyl-propanamide], for which the IC50 was found to be 5.1 nM. With `COc1cccc([C@@H](Oc2ccc3c(cnn3-c3ccc(F)cc3)c2)[C@H](C)NC(=O)C2CCCC2)c1` [Example 56, N-[(1R,2S)-1-[1-(4-fluorophenyl)indazol-5-yl]oxy-1-(3-methoxyphenyl)propan-2-yl]cyclopentanecarboxamide] the figure was 4.4 nM.

Regarding `COCC(=O)N[C@@H](C)[C@H](Oc1ccc2c(cnn2-c2ccc(F)cc2)c1)c1ccccc1` [Example 31, N-[(1R,2S)-1-[1-(4-fluorophenyl)indazol-5-yl]oxy-1-phenyl-propan-2-yl]-2-methoxy-acetamide], the IC50 was determined as 2.8 nM. With `COc1cccc([C@@H](Oc2ccc3c(cnn3-c3ccc(F)cc3)c2)[C@H](C)NC(=O)c2ccc(S(C)(=O)=O)s2)c1` [Example 273, N-[(1R,2S)-1-[1-(4-fluorophenyl)indazol-5-yl]oxy-1-(3-methoxyphenyl)propan-2-yl]-5-methylsulfonyl-thiophene-2-carboxamide] the figure was 7.9 nM; with `C[C@H](NC(=S)NCc1ccco1)[C@H](Oc1ccc2c(cnn2-c2ccc(F)cc2)c1)c1ccccc1` [Example 108, 1-{(1S,2R)-2-{[1-(4-Fluorophenyl)-1H-indazole-5-yl]oxy}-1-methyl-2-phenylethyl}-3-(2-furylmethyl)thiourea], 4.9 nM; with `CC(C)(C)C(=O)NC(C(Oc1ccc2c(cnn2-c2ccc(F)cc2)c1)c1ccccc1)C(F)(F)F` (single isomer, unassigned) [Example 147D1E1, N-(1,1,1-trifluoro-3-(1-(4-fluorophenyl)-1H-indazol-5-yloxy)-3-phenylpropan-2-yl)pivalamide], 97 nM. On to `COc1ccc([C@@H](Oc2ccc3c(cnn3-c3ccc(F)cc3)c2)[C@H](C)NC(=O)C(C)(C)F)cc1F` [Example 246, 2-fluoro-N-[(1R,2S)-1-(3-fluoro-4-methoxy-phenyl)-1-[1-(4-fluorophenyl)indazol-5-yl]oxy-propan-2-yl]-2-methyl-propanamide], for which the IC50 came out at 6 nM. Take `Cc1cnc(C(=O)N[C@@H](C)[C@H](Oc2ccc3c(cnn3-c3ccc(F)cc3)c2)c2ccc3c(c2)OCO3)s1` [Example 210, N-[(1R,2S)-1-benzo[1,3]dioxol-5-yl-1-[1-(4-fluorophenyl)indazol-5-yl]oxy-propan-2-yl]-5-methyl-1,3-thiazole-2-carboxamide]: the IC50 is 5.2 nM.

With `Cc1ccc(C)c([C@@H](Oc2ccc3c(cnn3-c3ccc(F)cc3)c2)[C@H](C)NC(=O)C(C)(C)C)c1` [Example 175, N-[(1R,2S)-1-(2,5-dimethylphenyl)-1-[1-(4-fluorophenyl)indazol-5-yl]oxy-propan-2-yl]-2,2-dimethyl-propanamide], the 50% inhibitory concentration (IC50) was 4.3 nM. As to `Cc1ccc([C@@H](Oc2ccc3c(cnn3-c3ccc(F)cc3)c2)[C@H](C)NC(=O)C(C)(C)F)cc1C` [Example 240, N-[(1R,2S)-1-(3,4-dimethylphenyl)-1-[1-(4-fluorophenyl)indazol-5-yl]oxy-propan-2-yl]-2-fluoro-2-methyl-propanamide], the IC50 came to 5.9 nM.

For the compound `COCCOCC(=O)N[C@@H](C)[C@H](Oc1ccc2c(cnn2-c2ccc(F)cc2)c1)c1cccc(OC)c1` [Example 71, N-[(1R,2S)-1-[1-(4-Fluorophenyl)indazol-5-yl]oxy-1-(3-methoxyphenyl)propan-2-yl]-2-(2-methoxyethoxy)acetamide], the IC50 turned out to be 4.6 nM. In the case of `Cc1ccc(C)c([C@@H](Oc2ccc3c(cnn3-c3ccc(F)cc3)c2)[C@H](C)NC(=O)C(C)(F)F)c1` [Example 266, N-[(1R,2S)-1-(2,5-dimethylphenyl)-1-[1-(4-fluorophenyl)indazol-5-yl]oxy-propan-2-yl]-2,2-difluoro-propanamide], the IC50 was found to be 2.9 nM. The same measure for `COc1ccccc1[C@@H](Oc1ccc2c(cnn2-c2ccc(F)cc2)c1)[C@H](C)NC(=O)C(C)(C)C` [Example 187, N-[(1R,2S)-1-[1-(4-fluorophenyl)indazol-5-yl]oxy-1-(2-methoxyphenyl)propan-2-yl]-2,2-dimethyl-propanamide]: 4.5 nM; for `CC[C@H](NC(=O)C(C)(C)C)[C@H](Oc1ccc2c(cnn2-c2ccc(F)cc2)c1)c1ccccc1` [Example 96, N-((1R,2S)-1-(1-(4-fluorophenyl)-1H-indazol-5-yloxy)-1-phenylbutan-2-yl)pivalamide]: 3.5 nM. Take `Cc1ccc(F)cc1[C@@H](Oc1ccc2c(cnn2-c2ccc(F)cc2)c1)[C@H](C)NC(=O)C(C)(C)C` [Example 180, N-[(1R,2S)-1-(5-fluoro-2-methyl-phenyl)-1-[1-(4-fluorophenyl)indazol-5-yl]oxy-propan-2-yl]-2,2-dimethyl-propanamide]: the IC50 was determined as 6.8 nM. Consider `COc1cccc([C@@H](Oc2ccc3c(cnn3-c3ccc(F)cc3)c2)[C@H](C)NC(=O)c2cn(C)cn2)c1` [Example 283, N-[(1R,2S)-1-[1-(4-fluorophenyl)indazol-5-yl]oxy-1-(3-methoxyphenyl)propan-2-yl]-1-methyl-imidazole-4-carboxamide], for which the IC50 amounted to 4.7 nM.

With `COc1cccc([C@@H](Oc2ccc3c(cnn3-c3ccc(F)cc3)c2)[C@H](C)NC(=O)c2ccc(C(F)(F)F)cc2)c1` [Example 83, N-((1R,2S)-1-(1-(4-fluorophenyl)-1H-indazol-5-yloxy)-1-(3-methoxyphenyl)propan-2-yl)-4-(trifluoromethyl)benzamide], the IC50 worked out at 5.8 nM.

As to `CCc1cccc([C@@H](Oc2ccc3c(cnn3-c3ccc(F)cc3)c2)[C@H](C)NC(=O)C(F)(F)F)c1` [Example 22, N-[(1R,2S)-1-(3-ethylphenyl)-1-[1-(4-fluorophenyl)indazol-5-yl]oxy-propan-2-yl]-2,2,2-trifluoro-acetamide], the IC50 is 4.7 nM. With `COc1cccc([C@@H](Oc2ccc3c(cnn3-c3ccc(F)cc3)c2)[C@H](C)NC(=O)[C@H](C)O)c1` [Example 58, (2S)-N-[(1R,2S)-1-[1-(4-fluorophenyl)indazol-5-yl]oxy-1-(3-methoxyphenyl)propan-2-yl]-2-hydroxy-propanamide], the IC50 is 2.7 nM. With `C[C@H](NC(=O)C(F)(F)F)[C@H](Oc1ccc2c(cnn2-c2ccc(F)cc2)c1)c1ccc(SC2CC2)cc1` [Example 15, N-[(1R,2S)-1-(4-cyclopropylsulfanylphenyl)-1-[1-(4-fluorophenyl)indazol-5-yl]oxy-propan-2-yl]-2,2,2-trifluoro-acetamide], the IC50 worked out at 6.8 nM. With `COc1cccc([C@@H](Oc2ccc3c(cnn3-c3ccc(F)cc3)c2)[C@H](C)NC(=O)C2CCN(C(=O)OC(C)(C)C)C2)c1` (stereo partly drawn) [Example 301, tert-butyl 3-((1R,2S)-1-(1-(4-fluorophenyl)-1H-indazol-5-yloxy)-1-(3-methoxyphenyl)propan-2-ylcarbamoyl)pyrrolidine-1-carboxylate], the IC50 was 5.2 nM. Consider `COc1cccc([C@@H](Oc2ccc3c(cnn3-c3ccc(F)cc3)c2)[C@H](C)NC(=O)c2ncsc2C)c1` [Example 288, N-[(1R,2S)-1-[1-(4-fluorophenyl)indazol-5-yl]oxy-1-(3-methoxyphenyl)propan-2-yl]-5-methyl-1,3-thiazole-4-carboxamide], for which the IC50 was found to be 5 nM. In the case of `Cc1cc(Cl)ccc1[C@@H](Oc1ccc2c(cnn2-c2ccc(F)cc2)c1)[C@H](C)NC(=O)C(F)(F)F` [Example 169, N-[(1R,2S)-1-(4-chloro-2-methyl-phenyl)-1-[1-(4-fluorophenyl)indazol-5-yl]oxy-propan-2-yl]-2,2,2-trifluoro-acetamide], the IC50 worked out at 8.1 nM.

The term IC50 denotes the concentration at which inhibition is half-maximal.
